Key:
[1] = target: T1, Human ACC1 (Homo sapiens, UniProt Q13085); test: In vitro enzymatic ACC activity assay (malachite green), ACC1; type: biochemical; conditions: recombinant His-tagged enzyme, absorbance at 620 nm
T1 construct: made in house; host or cells: SF-9 insect cells (baculovirus, pFAST-BacHTc)
Protocol: (§1) Provided in Example A is an in vitro enzymatic ACC activity assay for activity against ACC. The binding affinity of the test compound to ACC1 or ACC2 is determined by the changes in absorbance (at 620 nm); […]. It should be noted that a variety of other expression systems and hosts are also suitable for the expression of ACC, as would be readily appreciated by one of skill in the art.
Human ACC1 cDNA was amplified from human liver cDNA by polymerase chain reaction using primers; 5′[…]3′ (SEQ ID NO: 1) and 5′[…]3′ (SEQ ID NO: 2). The amplified DNA fragment was digested by restriction enzyme SalI and NotI, and cloned into pFAST-BacHTc (Invitrogen). This plasmid DNA was used for preparation of recombinant vaculovirus with BAC-TO-BAC Baculovirus Expression System (Invitrogen).
SF-9 cells were infected with the vaculovirus and cultured at 27° C. for 3 days. Harvested cells were homogenized in buffer A (25 mM HEPES (pH7.5), 130 mM NaCl, 1 mM EDTA, 25 mM sodium glycerophosphate, 1 mM sodium orthovanadate, 10% glycerol, complete protease inhibitor), and subjected to ultracentrifuge at 185700×g for 50 min at 4° C. ACC1 protein with 6×His-tag at the N-terminal was purified from the supernatant using Ni-NTA Super Flow Gel (QIAGEN). Eluted protein was dialysed against buffer B (50 mM HEPES (pH 7.5), 300 mM NaCl, 10 mM MgCl2, 10 mM tripotassium citrate, 2 mM dithiothreitol) and concentrated using Vivaspin20 ultrafiltration tube (Sartorius).
(§2) Malachite green solution was prepared by mixing 100 mL of solution A (0.12% malachite green in 5NH2SO4), 25 mL of solution B (7.5% ammonium molybdate) and 2 mL of solution C (11% TWEEN-20).
(§3) ACC1 was diluted to 8 μg/mL in reaction buffer (50 mM HEPES pH7.5, 10 mM MgCl2, 10 mM tripotassium citrate, 2 mM DTT, 0.75 mg/mL fatty acid free BSA) and 10 μL diluted enzyme solution was pored into each well of 384-well clear bottom plate. Test compound was diluted in the reaction buffer and 5 μL of the compound solution was added into each well, and the mixture was incubated at 30° C. for 60 minutes. Reaction was initiated by addition of 5 μL substrate solution (50 mM KHCO3, 200 μM ATP, 200 μM acetyl-CoA). After incubation at 30° C. for 20 minutes, reaction was terminated by addition of 5 μL malachite green solution and absorbance at 620 nm was measured.
(§4) Percent activity at each concentration of compound was calculated from the following equation: […]
(§5) Data were subjected to nonlinear regression analysis using GraphPad Prism Software (GraphPad Software Inc.) to obtain IC50 values.

[2] = target: T2, Human ACC2 (Homo sapiens, UniProt O00763); test: In vitro enzymatic ACC activity assay (malachite green), ACC2; type: biochemical; conditions: recombinant His-tagged enzyme, absorbance at 620 nm
T2 construct: made in house; host or cells: SF-9 insect cells (baculovirus, pFAST-BacHTa)
T2 sequence (O00763 117-2458 limits assumed): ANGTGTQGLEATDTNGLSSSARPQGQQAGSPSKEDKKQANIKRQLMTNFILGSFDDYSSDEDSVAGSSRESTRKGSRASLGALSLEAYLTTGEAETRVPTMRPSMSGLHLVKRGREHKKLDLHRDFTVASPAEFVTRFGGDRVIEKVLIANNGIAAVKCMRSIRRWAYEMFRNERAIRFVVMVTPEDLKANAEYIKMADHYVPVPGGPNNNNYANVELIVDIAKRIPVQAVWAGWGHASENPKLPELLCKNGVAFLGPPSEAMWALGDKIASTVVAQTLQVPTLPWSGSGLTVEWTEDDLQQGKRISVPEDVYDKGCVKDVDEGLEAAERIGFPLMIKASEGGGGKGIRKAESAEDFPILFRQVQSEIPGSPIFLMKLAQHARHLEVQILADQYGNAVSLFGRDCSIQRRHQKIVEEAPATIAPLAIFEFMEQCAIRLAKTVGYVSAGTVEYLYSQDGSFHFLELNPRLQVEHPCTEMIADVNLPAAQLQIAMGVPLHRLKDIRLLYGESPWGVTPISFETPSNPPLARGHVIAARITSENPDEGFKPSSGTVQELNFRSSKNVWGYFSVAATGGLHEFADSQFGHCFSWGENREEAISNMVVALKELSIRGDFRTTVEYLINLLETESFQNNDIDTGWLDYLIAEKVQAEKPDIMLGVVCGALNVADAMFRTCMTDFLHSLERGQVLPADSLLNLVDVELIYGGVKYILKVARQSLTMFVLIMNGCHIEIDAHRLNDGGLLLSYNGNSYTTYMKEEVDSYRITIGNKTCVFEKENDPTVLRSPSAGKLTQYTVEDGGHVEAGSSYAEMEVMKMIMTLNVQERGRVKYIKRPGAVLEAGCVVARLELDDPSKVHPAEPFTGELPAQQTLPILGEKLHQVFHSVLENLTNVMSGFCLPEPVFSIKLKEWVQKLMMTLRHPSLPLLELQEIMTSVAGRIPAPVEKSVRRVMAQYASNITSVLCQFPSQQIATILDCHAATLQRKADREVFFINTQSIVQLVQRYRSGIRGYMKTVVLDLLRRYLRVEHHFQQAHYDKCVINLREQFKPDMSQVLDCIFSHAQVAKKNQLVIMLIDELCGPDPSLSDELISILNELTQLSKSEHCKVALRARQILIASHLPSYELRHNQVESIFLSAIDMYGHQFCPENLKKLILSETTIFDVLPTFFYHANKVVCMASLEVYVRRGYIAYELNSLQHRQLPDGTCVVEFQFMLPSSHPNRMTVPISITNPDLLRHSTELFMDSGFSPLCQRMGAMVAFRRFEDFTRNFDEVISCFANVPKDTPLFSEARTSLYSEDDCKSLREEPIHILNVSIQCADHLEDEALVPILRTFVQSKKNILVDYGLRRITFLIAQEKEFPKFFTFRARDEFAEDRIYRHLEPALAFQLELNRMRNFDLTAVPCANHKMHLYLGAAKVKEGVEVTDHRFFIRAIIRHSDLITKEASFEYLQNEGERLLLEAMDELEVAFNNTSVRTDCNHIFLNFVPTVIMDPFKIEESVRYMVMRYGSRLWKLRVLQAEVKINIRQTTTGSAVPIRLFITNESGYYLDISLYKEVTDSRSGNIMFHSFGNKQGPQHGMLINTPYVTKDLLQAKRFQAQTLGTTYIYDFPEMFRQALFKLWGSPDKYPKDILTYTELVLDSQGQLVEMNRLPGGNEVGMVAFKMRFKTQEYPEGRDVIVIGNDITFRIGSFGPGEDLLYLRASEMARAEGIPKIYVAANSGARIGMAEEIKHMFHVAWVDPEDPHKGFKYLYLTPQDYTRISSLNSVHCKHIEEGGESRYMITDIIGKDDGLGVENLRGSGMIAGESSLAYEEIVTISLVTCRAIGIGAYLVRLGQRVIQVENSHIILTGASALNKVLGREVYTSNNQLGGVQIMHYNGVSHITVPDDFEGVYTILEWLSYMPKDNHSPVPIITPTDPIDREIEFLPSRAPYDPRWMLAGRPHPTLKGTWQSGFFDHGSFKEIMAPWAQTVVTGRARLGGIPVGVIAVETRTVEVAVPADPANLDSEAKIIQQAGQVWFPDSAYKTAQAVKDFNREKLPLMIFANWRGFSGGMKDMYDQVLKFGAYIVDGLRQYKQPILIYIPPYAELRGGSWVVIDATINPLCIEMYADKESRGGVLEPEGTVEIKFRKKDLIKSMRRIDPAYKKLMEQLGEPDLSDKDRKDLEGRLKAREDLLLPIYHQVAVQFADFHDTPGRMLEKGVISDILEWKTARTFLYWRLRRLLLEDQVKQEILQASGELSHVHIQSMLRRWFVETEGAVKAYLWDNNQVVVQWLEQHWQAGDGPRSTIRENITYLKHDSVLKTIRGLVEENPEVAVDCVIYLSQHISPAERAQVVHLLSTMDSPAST
Protocol: as §1
Human ACC2 cDNA except coding region for mitochondria localization sequence was amplified from human skeletal muscle cDNA by polymerase chain reaction using primers; 5′[…]3′ (SEQ ID NO: 3) and 5′[…]3′ (SEQ ID NO: 4). The amplified DNA fragment was digested by SalI and AflII, and cloned into pFAST-BacHTa (Invitrogen). Preparation of recombinant vaculovirus, infection of the virus to SF-9 cells and purification of recombinant ACC2 protein with 6×His-tag at the N-terminal were performed in the same method as described above.
as §2, §3
ACC2 was diluted to 6.4 μg/mL in reaction buffer, and the activity was measured by the same method as described for ACC1.
as §4, §5

Row | Structure (SMILES) | IC50 [1] | IC50 [2]
1 | CCNC(=O)Nc1sc2ccccc2c1C(=O)N1CCN(S(=O)(=O)c2ccc(Cl)c(S(N)(=O)=O)c2)CC1 [Example 9, 2-chloro-5-(4-(2-(3-ethylureido)benzo[b]thiophene-3-carbonyl)piperazin-1-ylsulfonyl)benzenesulfonamide] | < 5 µM | < 5 µM
2 | CCNC(=O)Nc1sc2ccccc2c1C(=O)N1CCN(S(=O)(=O)c2ccc(OC)c(NC(C)=O)c2)CC1 [Example 19, N-(5-(4-(2-(3-ethylureido)benzo[b]thiophene-3-carbonyl)piperazin-1-ylsulfonyl)-2-methoxyphenyl)acetamide] | < 5 µM | < 5 µM
3 | CCNC(=O)Nc1sc2ccccc2c1C(=O)N1CCN(S(=O)(=O)CCC(=O)N2CCCC2)CC1 [Example 35, ethyl-3-(3-(4-(3-oxo-3-(pyrrolidin-1-yl)propylsulfonyl)piperazine-1-carbonyl)benzo[b]thiophen-2-yl)urea] | 5 to 50 µM | 5 to 50 µM
4 | CCNC(=O)Nc1sc2ccccc2c1C(=O)N1CCN(S(=O)(=O)c2ccc3c(c2)OCCCO3)CC1 [Example 18, 1-(3-(4-(3,4-dihydro-2H-benzo[b][1,4]dioxepin-7-ylsulfonyl)piperazine-1-carbonyl)benzo[b]thiophen-2-yl)-3-ethylurea] | < 5 µM | < 5 µM
5 | CCNC(=O)Nc1sc2ccccc2c1C(=O)N1CCC(Sc2cccc(OC)c2)CC1 [Example 39, ethyl-3-(3-(4-(3-methoxyphenylthio)piperidine-1-carbonyl)benzo[b]thiophen-2-yl)urea] | < 5 µM | < 5 µM
6 | CCNC(=O)Nc1sc2ccccc2c1C(=O)N1CCN(S(=O)(=O)c2cccc(S(C)(=O)=O)c2)CC1 [Example 5, ethyl-3-(3-(4-(3-(methylsulfonyl)phenylsulfonyl)piperazine-1-carbonyl)benzo[b]thiophen-2-yl)urea] | 5 to 50 µM | 5 to 50 µM
7 | CCNC(=O)Nc1sc2ccccc2c1C(=O)N1CCC([S+]([O-])c2cccc(OC)c2)CC1 (stereo not drawn) [Example 41, ethyl-3-(3-(4-(3-methoxyphenylsulfinyl)piperidine-1-carbonyl)benzo[b]thiophen-2-yl)urea] | 5 to 50 µM | 5 to 50 µM
8 | CCNC(=O)Nc1sc2ccccc2c1C(=O)N1CCN(S(=O)(=O)c2cccc(OC(F)(F)F)c2)CC1 [Example 15, ethyl-3-(3-(4-(3-(trifluoromethoxy)phenylsulfonyl)piperazine-1-carbonyl)benzo[f]thiophen-2-yl)urea] | > 50 µM | > 50 µM

Other lines, results leading:

Row | IC50 [1] | IC50 [2] | Structure (SMILES)
9 | > 50 µM | > 50 µM | CCNC(=O)Nc1sc2ccccc2c1C(=O)N1CCC(S(=O)(=O)c2ccc3c(c2)OCO3)CC1 [Example 38, 1-(3-(4-(benzo[d][1,3]dioxol-5-ylsulfonyl)piperidine-1-carbonyl)benzo[b]thiophen-2-yl)-3-ethylurea]
10 | < 5 µM | < 5 µM | CCNC(=O)Nc1sc2ccccc2c1C(=O)N1CCN(S(=O)(=O)c2cccc(C(C)=O)c2)CC1 [Example 20, 1-(3-(4-(3-acetylphenylsulfonyl)piperazine-1-carbonyl)benzo[b]thiophen-2-yl)-3-ethylurea]
11 | 5 to 50 µM | 5 to 50 µM | CCNC(=O)Nc1sc2ccccc2c1C(=O)N1CCN(S(=O)(=O)CCC(=O)OCC)CC1 [Example 25, Ethyl 3-(4-(2-(3-ethylureido)benzo[b]thiophene-3-carbonyl)piperazin-1-ylsulfonyl)propanoate]
12 | > 50 µM | 5 to 50 µM | CCNC(=O)Nc1sc2ccccc2c1C(=O)N1CCN(S(=O)(=O)CCC(F)(F)F)CC1 [Example 27, ethyl-3-(3-(4-(3,3,3-trifluoropropylsulfonyl)piperazine-1-carbonyl)benzo[b]thiophen-2-yl)urea]
13 | 5 to 50 µM | 5 to 50 µM | CCNC(=O)Nc1sc2ccccc2c1C(=O)N1CCN(S(=O)(=O)CCC(=O)N2CCOCC2)CC1 [Example 36, ethyl-3-(3-(4-(3-morpholino-3-oxopropylsulfonyl)piperazine-1-carbonyl)benzo[b]thiophen-2-yl)urea]
14 | > 50 µM | > 50 µM | CCNC(=O)Nc1sc2ccccc2c1C(=O)N1CCN(S(=O)(=O)c2ccc3nsnc3c2)CC1 [Example 6, 1-(3-(4-(benzo[c][1,2,5]thiadiazol-5-ylsulfonyl)piperazine-1-carbonyl)benzo[b]thiophen-2-yl)-3-ethylurea]
15 | < 5 µM | < 5 µM | CCNC(=O)Nc1sc2ccccc2c1C(=O)N1CCN(S(=O)(=O)c2cccc(-c3noc(C)n3)c2)CC1 [Example 13, ethyl-3-(3-(4-(3-(5-methyl-1,2,4-oxadiazol-3-yl)phenylsulfonyl)piperazine-1-carbonyl)benzo[b]thiophen-2-yl)urea]
